Measurements as given in patent US20120330023A1, “Alkyl Pyridinium Dicyanamides and Method For The Production Thereof” (LONZA AG, priority 2004, published 2012).

Assay: water solubility / miscibility with water
Format: physicochemical

| Structure (SMILES) | water solubility (miscibility with water) |
| --- | --- |
| CCCC[n+]1cccc(C)c1.N#C[N-]C#N [N-butyl-3-methylpyridinium dicyanamide, 3-Methyl-1-butylpyridinium dicyanamide] | water-miscible |
| CCCC[n+]1ccccc1.N#C[N-]C#N [N-butylpyridinium dicyanamide] | water-miscible |
| CCCCCCCC[n+]1cccc(C)c1.N#C[N-]C#N [N-octyl-3-methylpyridinium dicyanamide, 3-Methyl-1-octylpyridinium dicyanamide] | water-immiscible |
| CCCCCCCC[n+]1ccccc1.N#C[N-]C#N [N-octylpyridinium dicyanamide] | water-immiscible |
